What was measured:
[1] = molecular target: T1, Human immunodeficiency virus type 1 integrase (Human immunodeficiency virus 1, UniProt Q7ZJM1); test: Inhibition of HIV1 recombinant integrase 3'-processing and strand transfer activity using 21-mer U5B/U5A duplex oligonucleotides after 1 hr
[2] = molecular target: T1, Human immunodeficiency virus type 1 integrase; test: Inhibition of HIV1 integrase

T1 sequence (Q7ZJM1 whole entry): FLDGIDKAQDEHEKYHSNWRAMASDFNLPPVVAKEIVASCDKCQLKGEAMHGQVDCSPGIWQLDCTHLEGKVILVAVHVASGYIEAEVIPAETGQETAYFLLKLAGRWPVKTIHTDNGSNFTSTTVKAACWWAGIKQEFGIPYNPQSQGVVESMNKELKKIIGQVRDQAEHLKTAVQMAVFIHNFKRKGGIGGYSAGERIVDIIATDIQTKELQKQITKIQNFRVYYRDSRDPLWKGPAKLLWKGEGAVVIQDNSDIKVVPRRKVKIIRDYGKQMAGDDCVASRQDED

Structure (SMILES) | IC50 ([1]; read-out: IC50) | also measured
CCOC(=O)CC(=O)Nc1ccccc1[N+](=O)[O-] |  | IC50 [1]: Not Active
CCOC(=O)CC(=O)Nc1cc(C(=O)O)ccc1O | > 300 µM | 
Cc1ccc2c(O)c(C(=O)O)ccc2n1 |  | IC50 [2]: 47 µM
CCOC(=O)CC(=O)Nc1ccc(C)cc1[N+](=O)[O-] |  | IC50 [1]: Not Active
CCOC(=O)CC(=O)NS(=O)(=O)c1ccc(C)cc1 | 500 µM | 
CCOC(=O)CC(=O)Nc1ccc(C)cc1 | 50 µM | 
CCOC(=O)CC(=O)NCc1ccc(F)cc1 | > 100 µM | 
Cc1ccc2ccc(C(=O)O)c(O)c2n1 |  | IC50 [2]: > 100 µM
Cc1ccc(NC(=O)CC(=O)O)c([N+](=O)[O-])c1 | > 100 µM | 
CCOC(=O)CC(=O)Nc1c(Cl)cccc1Cl | > 100 µM | 

Now from value to molecule, other results behind:

IC50 ([1]; read-out: IC50) | Structure (SMILES) | also measured
42 µM | CCOC(=O)CC(=O)Nc1ccc2cccc(O)c2n1 | 
2 µM | CCOC(=O)CC(=O)Nc1ccc(C(=O)O)cc1 | 
